In article PMC6959545 (European journal of medicinal chemistry, 2013):

Tests used:
[1] = system: mice (formalin test); experiment: formalin test in mice, oral administration; assay type: in vivo
[2] = molecular target: T1, human TRPV1 (Homo sapiens, UniProt Q8NER1); experiment: hTRPV1 antagonism of capsaicin; assay type: cell-based; details: for fold less potent than 12, CAP antagonism: compared with 2-pentyloxy derivative 12; for fold less potent than 11, CAP antagonism: compared with 2-butoxy derivative 11
[3] = molecular target: T1, human TRPV1; experiment: hTRPV1 antagonism of pH activation, FLIPR; assay type: cell-based; details: compound 1 vs lead 2

T1 sequence (Q8NER1 whole entry): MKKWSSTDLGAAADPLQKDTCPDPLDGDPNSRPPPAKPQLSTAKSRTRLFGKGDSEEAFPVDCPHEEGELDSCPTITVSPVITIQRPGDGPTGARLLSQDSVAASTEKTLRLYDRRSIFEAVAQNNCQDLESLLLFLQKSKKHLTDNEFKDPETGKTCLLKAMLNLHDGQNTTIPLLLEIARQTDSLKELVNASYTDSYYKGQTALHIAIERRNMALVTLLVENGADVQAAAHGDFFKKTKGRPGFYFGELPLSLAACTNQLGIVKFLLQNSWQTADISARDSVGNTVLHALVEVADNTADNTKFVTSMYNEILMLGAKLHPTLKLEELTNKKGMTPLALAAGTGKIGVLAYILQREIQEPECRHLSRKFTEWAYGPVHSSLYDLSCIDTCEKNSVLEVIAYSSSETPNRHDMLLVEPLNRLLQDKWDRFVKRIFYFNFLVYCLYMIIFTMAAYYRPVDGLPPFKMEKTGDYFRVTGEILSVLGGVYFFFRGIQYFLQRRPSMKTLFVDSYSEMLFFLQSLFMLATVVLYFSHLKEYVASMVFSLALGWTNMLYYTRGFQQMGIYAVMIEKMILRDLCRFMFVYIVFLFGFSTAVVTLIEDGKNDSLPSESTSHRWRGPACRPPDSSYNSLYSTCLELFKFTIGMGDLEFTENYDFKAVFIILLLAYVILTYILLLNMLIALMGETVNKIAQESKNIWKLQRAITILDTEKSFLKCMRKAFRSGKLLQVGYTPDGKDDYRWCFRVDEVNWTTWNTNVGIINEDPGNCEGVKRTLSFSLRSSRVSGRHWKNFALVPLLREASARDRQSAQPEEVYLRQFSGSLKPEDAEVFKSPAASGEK

CC(C(=O)NCc1ccc(C(F)(F)F)nc1OCc1ccccc1)c1ccc(NS(C)(=O)=O)c(F)c1 (stereo not shown) [Compound 53, N-((2-Benzyloxy-6-(trifluoromethyl)pyridin-3-yl)methyl)-(3-fluoro-4-(methylsulfonamido)phenyl)propanamide]
analgesic activity in the formalin test [1]: strong analgesic activity

CC(C)COc1nc(C(F)(F)F)ccc1CNC(=O)C(C)c1ccc(NS(C)(=O)=O)c(F)c1 (stereo not shown) [Compound 22, N-((2-Isobutoxy-6-(trifluoromethyl)pyridin-3-yl)methyl)-2-(3-fluoro-4-(methylsulfonamido)phenyl)propanamide]
analgesic activity in the formalin test [1]: strong analgesic activity

CCOCCOc1nc(C(F)(F)F)ccc1CNC(=O)C(C)c1ccc(NS(C)(=O)=O)c(F)c1 (stereo not shown) [Compound 17, N-((2-(2-Ethoxyethoxy)-6-(trifluoromethyl)pyridin-3-yl)methyl)-2-(3-fluoro-4-(methylsulfonamido)phenyl)propanamide]
fold less potent than 12, CAP antagonism [2]: 70 fold

COCCCOc1nc(C(F)(F)F)ccc1CNC(=O)C(C)c1ccc(NS(C)(=O)=O)c(F)c1 (stereo not shown) [Compound 18, N-((2-(3-Methoxypropoxy)-6-(trifluoromethyl)pyridin-3-yl)methyl)-2-(3-fluoro-4-(methylsulfonamido)phenyl)propanamide]
fold less potent than 12, CAP antagonism [2]: 22 fold

C/C=C\COc1nc(C(F)(F)F)ccc1CNC(=O)C(C)c1ccc(NS(C)(=O)=O)c(F)c1 (stereo not shown) [Compound 14, (Z)-N-((2-(But-2-en-1-yloxy)-6-(trifluoromethyl)pyridin-3-yl)methyl)-2-(3-fluoro-4-(methylsulfonamido)phenyl)propanamide]
fold less potent than 11, CAP antagonism [2]: ca. 5 fold

CC1CCN(c2nc(C(F)(F)F)ccc2CNC(=O)C(C)c2ccc(NS(C)(=O)=O)c(F)c2)CC1 (stereo not shown) [Compound 1, reference compound]
fold better than precedent lead 2, CAP antagonism ([2]; compound 1 vs lead 2): 150 fold
fold better than precedent lead 2, pH antagonism [3]: 230 fold

CCOCCCOc1nc(C(F)(F)F)ccc1CNC(=O)C(C)c1ccc(NS(C)(=O)=O)c(F)c1 (stereo not shown) [Compound 19, N-((2-(3-Ethoxypropoxy)-6-(trifluoromethyl)pyridin-3-yl)methyl)-2-(3-fluoro-4-(methylsulfonamido)phenyl)propanamide]
fold less potent than 13, CAP antagonism ([2]; compared with 2-hexyloxy derivative 13): 20 fold

COCCOc1nc(C(F)(F)F)ccc1CNC(=O)C(C)c1ccc(NS(C)(=O)=O)c(F)c1 (stereo not shown) [Compound 16, N-((2-(2-Methoxyethoxy)-6-(trifluoromethyl)pyridin-3-yl)methyl)-2-(3-fluoro-4-(methylsulfonamido)phenyl)propanamide]
fold less potent than 11, CAP antagonism [2]: 160 fold

CC/C=C\COc1nc(C(F)(F)F)ccc1CNC(=O)C(C)c1ccc(NS(C)(=O)=O)c(F)c1 (stereo not shown) [Compound 15, (Z)-N-((2-(Pent-2-en-1-yloxy)-6-(trifluoromethyl)pyridin-3-yl)methyl)-2-(3-fluoro-4-(methylsulfonamido)phenyl)propanamide]
fold less potent than 12, CAP antagonism [2]: ~1.5 fold
